Reference: PMC8069166, “Identification of a Prenyl Chalcone as a Competitive Lipoxygenase Inhibitor: Screening, Biochemical Evaluation and Molecular Modeling Studies” (Molecules, 2021)
“Also recorded” adds a separate entry of the source. Like-named read-outs stand apart in the source and are kept apart here.

What was measured:
[1] = target: T1, soybean lipoxygenase-1 (LOX-1) (Glycine max, UniProt P08170); assay: LOX-1 inhibition, spectrophotometric assay of conjugated diene formed by linoleic acid oxidation; format: biochemical
T1 construct: purchased Sigma-Aldrich, Brazil
T1 sequence (P08170 1-839): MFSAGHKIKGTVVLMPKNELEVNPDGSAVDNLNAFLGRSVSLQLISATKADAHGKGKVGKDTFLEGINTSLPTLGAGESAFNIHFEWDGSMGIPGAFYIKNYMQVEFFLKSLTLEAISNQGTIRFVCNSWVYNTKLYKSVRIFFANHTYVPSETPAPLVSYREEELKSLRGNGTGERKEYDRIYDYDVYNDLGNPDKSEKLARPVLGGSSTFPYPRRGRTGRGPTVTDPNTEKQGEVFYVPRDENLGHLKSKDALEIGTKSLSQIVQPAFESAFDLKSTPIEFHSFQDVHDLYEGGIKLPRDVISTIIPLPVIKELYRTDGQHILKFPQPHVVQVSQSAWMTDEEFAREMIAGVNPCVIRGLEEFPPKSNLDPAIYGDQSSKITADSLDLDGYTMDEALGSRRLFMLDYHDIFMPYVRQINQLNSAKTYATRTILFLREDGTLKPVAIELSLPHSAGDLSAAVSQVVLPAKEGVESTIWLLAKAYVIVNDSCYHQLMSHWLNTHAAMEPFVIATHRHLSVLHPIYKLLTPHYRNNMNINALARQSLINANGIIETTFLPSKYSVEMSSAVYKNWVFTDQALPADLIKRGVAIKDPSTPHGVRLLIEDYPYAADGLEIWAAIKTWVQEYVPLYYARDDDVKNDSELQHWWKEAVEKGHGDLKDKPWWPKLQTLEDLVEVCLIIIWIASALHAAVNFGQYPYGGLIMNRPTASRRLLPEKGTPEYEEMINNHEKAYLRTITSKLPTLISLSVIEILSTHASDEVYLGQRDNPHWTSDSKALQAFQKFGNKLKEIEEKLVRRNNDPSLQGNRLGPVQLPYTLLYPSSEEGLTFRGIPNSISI
Experimental: For the in vitro screening to identify the inhibitors of the enzymatic activity of LOX-1, a spectrophotometric assay was employed in order to measure the conjugated diene formed by linoleic acid oxidation. Soybean LOX-1, which converts linoleic acid to 13-hydroperoxylinoleic acid, is inhibited by NSAIDs in a qualitatively similar way to that of the rat mast cell line 5-LOX, and it may be used as a reliable screening target for this activity. The screening was performed with compounds from Brazilian biodiversity (NuBBEDB) and synthetic derivatives previously synthesized by using natural products as models. In this context, a variety of natural products were evaluated, such as triterpenes, chalcones, casearins, alkaloids, guanidines, and flavonoids.
(§1) The ability of chalcones 1–6 to act as LOX-1 inhibitors was evaluated according to a method from Ha et al. (2004). Initially, 2.910 mL Tris-HCl buffer ([…] (pH 8.0), Sigma-Aldrich, Brazil) was added to a quartz cuvette, followed by the addition of 25 μL LOX-1 (final concentration 1 μM, Sigma-Aldrich, Brazil) and 10 μL of the compounds tested (the final concentration ranged from 1 to 20 μM). The solution was incubated for 5 min at 25 °C. The reaction was started with the addition of linoleic acid (55 μL, 1 mM, Sigma-Aldrich, Brazil), and the LOX-1 activity was monitored at λ = 221 nm, pH 8.0, and 25 °C by an absorbance spectrophotometer in UV-Vis (Perkin Elmer Lambda 22, Waltham, MA, USA). For the determination of KM, varying substrate concentrations were used (linoleic acid, 13.7–91.7 µM) and 1 µM LOX-1. […] The spectrophotometric measurements at λ = 221 nm are associated with the conjugated double bonds formed from the linoleic acid substrate.

LOX-1 [2] = target: T2, LOX-1 (Glycine max, UniProt P08170); assay: Enzyme kinetics, mechanism of LOX-1 inhibition; format: biochemical, soybean (Glycine max)
T2 sequence (P08170 1-839): T1 sequence (P08170 1-839)
Experimental: as §1

LOX-1 [3] = target: T2, LOX-1; assay: Oxygen consumption by the catalytic activity of LOX (polarography, O2-selective electrode); format: biochemical, soybean (Glycine max); settings: compound at 10 µM, 25 °C
Source text: A polarography-based assay was used to evaluate the rate of the oxygen consumption during LOX-1 inhibition, during which oxygen consumption is associated with the formation of a hydroperoxyl group [28]. In order to evaluate the decrease in oxygen consumption upon LOX-1 inhibition by the prenyl chalcone 6, an O2-selective electrode coupled to an oxygen monitoring probe was employed. […] The oxygen consumption was monitored using an O2-selective electrode coupled to a YSI 5300 Oxygen Monitor (Yellow Springs, OH, USA) at 25 °C. The reactions were initiated by adding O2 (100 μM), followed by the addition of LOX (20 nM) in 0.1 M Phosphate buffered saline (PBS), with pH 7.4 at 25 °C and the compounds being tested [32].

[4] = cited from earlier work
[5] = LOX-1 1 µM, linoleic acid substrate, pH 8.0, 25 °C, mean and standard deviation of three independent experiments, read-out: IC50 for the inhibition of lipoxygenase-1

Q: For `O=C(/C=C/c1ccccc1O)c1ccccc1` [Compound 1], which IC50 [1, 5] is on record?
A: > 50 µM

Q: Which IC50 [1, 5] does the source give for `O=C(/C=C/c1cccc(O)c1)c1ccccc1` [Compound 2] here?
A: > 50 µM

Q: With `O=C(/C=C/c1ccc(O)cc1)c1ccccc1` [Compound 3, (E)-4-hydroxychalcone] as the compound, how does the IC50 [1] read?
A: > 50 µM

Q: For `CC(C)=CCOc1ccccc1/C=C/C(=O)c1ccccc1` [Compound 4, 2-O-prenyl chalcone], which IC50 [1, 5] is on record?
A: > 50 µM

Q: With `CC(C)=CCC/C(C)=C/COc1cccc(/C=C/C(=O)c2ccccc2)c1` [Compound 5, 3-O-geranyl chalcone] as the compound, how does the IC50 [1, 5] read?
A: 11.8 ± 0.9 µM

Q: For `CC(C)=CCC/C(C)=C/CC/C(C)=C/COc1ccccc1/C=C/C(=O)c1ccccc1` [Compound 6, (E)-2-O-farnesyl chalcone], which mechanism of inhibition (LOX-1 [2]; LOX-1, enzyme kinetics) is on record?
A: competitive

Q: And the Ki (LOX-1 [2]; increasing concentrations of 6 (5–10 µM), linoleic acid substrate)?
A: 7 µM

Q: What about the IC50 [1, 5] of the same compound?
A: 5.7 ± 0.8 µM

Q: And the “fold more potent in LOX-1 inhibition than 2-O-prenyl chalcone (4)” value ([1]; ratio of IC50 values, versus compound 4)?
A: > 10 fold

Q: What about the “oxygen consumption during LOX-1 catalysis” value (LOX-1 [3]) of the same compound?
A: delay of the oxygen consumption; also recorded: lower rate of oxygen consumption

Q: What about the “oxygen consumption during LOX-1 catalysis” value (LOX-1 [3]; listed as (E)-2-O-farnesyl chalcone) of the same compound?
A: decreased the rate of oxygen consumption

Q: Which “toxicity on long-term use” value [4] does the source give for `CC(Cc1ccc(O)c(O)c1)C(C)Cc1ccc(O)c(O)c1` (stereo not shown) [Nordihydroguaiaretic acid (NDGA), Nordihydroguaiaretic acid, reference compound] here?
A: liver damage and kidney dysfunction

Q: What about the “oxygen consumption during LOX-1 catalysis” value (LOX-1 [3]) of the same compound?
A: lower rate of oxygen consumption
